# “And” between values parts separate entries of the source, which are not always exact repeats. Equal values may be shown once.
# System: human monocytic cell line U937
# Test: Human U937 cellular necroptosis assay (TNFalpha + z-VAD-FMK, Cell Titer-Glo viability)
# Type: cell-based
# Conditions: Homo sapiens, U-937, 22 h, U937 cells, 25 ng/mL human TNFalpha + 25 μM z-VAD-FMK, read-out: hU937 Avg IC50
# How it was run: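 Readout is CellTiter-Glo 2.0 luminescence after 22 h at 37° C with compound, in cells triggered by human TNFalpha (25 ng/mL) and z-VAD-FMK (25 μM) in phenol red-free RPMI/10% FBS. Values are run-averaged IC50s from a four-parameter logistic curve.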
row,Compound,IC50 [nM]
1,"Cn1cc(-c2ccc(OCC34CC(C(=O)N5N=CCC5c5cc(F)cc(F)c5)(C3)C4)c(Cl)c2)cn1 (stereo not shown) [Example 341, (3-((2-chloro-4-(1-methyl-1H-pyrazol-4-yl)phenoxy)methyl)-bicyclo[1.1.1]pentan-1-yl)(5-(3,5-difluorophenyl)-4,5-dihydro-1H-pyrazol-1-yl)-methanone]",23
2,"N#Cc1ccc(OCC23CC(C(=O)N4N=CCC4c4ncccc4F)(C2)C3)nc1 (stereo not shown) [Example 303, 6-((3-(5-(3-fluoropyridin-2-yl)-4,5-dihydro-1H-pyrazole-1-carbonyl)bicyclo[1.1.1]-pentan-1-yl)methoxy)-nicotinonitrile]",500
3,"N#Cc1ccc(OCC23CC(C(=O)N4N=CCC4c4cc(F)c(Br)c(F)c4)(C2)C3)nc1 (stereo not shown) [Example 275, 6-((3-(5-(4-bromo-3,5-difluorophenyl)-4,5-dihydro-1H-pyrazole-1-carbonyl)-bicyclo[1.1.1]pentan-1-yl)-methoxy)nicotinonitrile]",73
4,"N#Cc1cnc(OCC23CC(C(=O)N4N=CCC4c4ccccc4Cl)(C2)C3)cn1 (stereo not shown) [Example 318, 5-((3-(5-(2-chlorophenyl)-4,5-dihydro-1H-pyrazole-1-carbonyl)bicyclo[1.1.1]pentan-1-yl)methoxy)pyrazine-2-carbonitrile]",55

# Same assay, conditions: U937 cells, 25 ng/mL human TNFalpha + 25 μM z-VAD-FMK, 22 h; read-out: hU937 Avg IC50
row,Compound,IC50 [nM]
1,"O=C(N1N=CCC1c1cc(F)cc(F)c1)C12CC(Cn3ncc4ncccc43)(C1)C2 (stereo not shown) [Example 148, (3-((1H-pyrazolo[4,3-b]-pyridin-1-yl)methyl)bicyclo-[1.1.1]pentan-1-yl)(5-(3,5-difluorophenyl)-4,5-dihydro-1H-pyrazol-1-yl)methanone]",912

# Biological target: RIPK1 (Homo sapiens (Human), UniProt Q13546)
# Test: ADP-Glo kinase assay (RIPK1 activity, conversion of ATP to ADP)
# Type: biochemical
# Conditions: 5 nM RIPK1, 50 μM ATP, 6 h reaction; footnote symbol (a); read-out: RIPK1 Enzyme Avg IC50
# Experimental: In order to measure RIPK1 activity the ADP-Glo kinase assay (Promega, Catalog #V7002) was used to measure the conversion of ATP to ADP. This enzymatic assay was performed in a 384-well white, Optiplate (Perkin Elmer, Catalog #6007299) with assay buffer consisting of 50 mM HEPES pH 7.5 (Gibco, Catalog #15630-080), 50 mM NaCl (Teknova, Catalog #S0252), 30 mM MgCl2 (Ambion, Catalog #AM9530G), 1 mM DTT (Santa Cruz Biotechnology, Catalog #sc-29089), 0.05% BSA (Sigma, Catalog #A3059-50G) and 0.02% CHAPS (Sigma, Catalog #C5070-5G). Stock solutions of the test compounds were prepared in 100% DMSO (Sigma, Catalog #D2650) and serially diluted 1:3 using 100% DMSO. Compounds were additionally diluted 1:40 in assay buffer, and 2 μL/well were transferred to the assay plate. 4 μL/well (final concentration of 5 nM) of RIPK1 protein (SignalChem, Catalog #R07-1IG-05) diluted in assay buffer and added to the assay plate followed by a 10 minute preincutation at rt. 4 μL/well of ATP (Promega, Catalog #V7002) (final concentration of 50 μM) diluted in assay buffer were then added to the assay plate followed by a 6 h reaction time. Final concentrations of RIPK1 and ATP refer to a 10 μL volume. Luminescence was measured using a BioTek Synergy™ NEO plate reader. IC50 values were calculated using a four-parameter logistic curve fit using Genedata Screener software.
# Sequence of RIPK1 (Q13546 1-327): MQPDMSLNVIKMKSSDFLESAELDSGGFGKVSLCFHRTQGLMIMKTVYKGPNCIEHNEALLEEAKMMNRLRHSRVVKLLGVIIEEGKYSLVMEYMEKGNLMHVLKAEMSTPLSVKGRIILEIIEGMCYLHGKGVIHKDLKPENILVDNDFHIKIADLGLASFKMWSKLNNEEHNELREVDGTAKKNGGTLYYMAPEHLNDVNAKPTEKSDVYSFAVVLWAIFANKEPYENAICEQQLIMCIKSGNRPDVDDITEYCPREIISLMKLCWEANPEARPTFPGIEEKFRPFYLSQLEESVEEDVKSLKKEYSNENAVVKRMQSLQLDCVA
row,Compound,IC50 [nM]
1,"Cc1cccc(C2CCCN2C(=O)C23CC(O)(C2)C3)c1 (stereo not shown) [Example 120, (3-hydroxybicyclo[1.1.1]-pentan-1-yl)(2-(m-tolyl)-pyrrolidin-1-yl)methanone]",> 50000
2,"Cc1cccc(C2CCCN2C(=O)C23CC(N4C(=O)CCC4=O)(C2)C3)c1 (stereo not shown) [Example 25, 1-(3-(2-(m-Tolyl)pyrrolidine-1-carbonyl)bicyclo[1.1.1]pentan-1-yl)pyrrolidine-2,5-dione]",> 50000
3,"N#CC12CC(C(=O)N3CCC(Oc4ccccc4)C3)(C1)C2 (stereo not shown) [Example 116, 3-(3-phenoxypyrrolidine-1-carbonyl)bicyclo[1.1.1]-pentane-1-carbonitrile]",> 50000
4,"CCC(=O)NC12CC(C(=O)N3CCCC3c3cccc(C)c3)(C1)C2 (stereo not shown) [Example 118, N-(3-(2-(m-tolyl)pyrrolidine-1-carbonyl)bicyclo[1.1.1]-pentan-1-yl)propionamide]",> 50000

# Same assay, conditions: 5 nM RIPK1, 50 μM ATP, 6 h reaction; read-out: RIPK1 Enzyme Avg IC50
row,Compound,IC50
1,"N#Cc1cc(OCC23CC(C(=O)NCc4cc(F)cc(F)c4)(C2)C3)ncn1 [Example 104, 3-(((6-cyanopyrimidin-4-yl)oxy)methyl)-N-(3,5-difluorobenzyl)bicyclo-[1.1.1]pentane-1-carboxamide]",3050 nM
2,"Cc1cccc(OCC23CC(C(=O)N4CC(F)CC4c4cccc(F)c4)(C2)C3)c1 (stereo not shown) [Example 108, (4-fluoro-2-(3-fluorophenyl)-pyrrolidin-1-yl)(3-((m-tolyloxy)methyl)bicyclo-[1.1.1]pentan-1-yl)methanone]",206 nM
3,"O=C(N1N=CCC1c1cc(F)cc(F)c1)C12CC(CN3CC(c4ccccc4)C3)(C1)C2 (stereo not shown) [Example 154, (5-(3,5-difluorophenyl)-4,5-dihydro-1H-pyrazol-1-yl)(3-((3-phenylazetidin-1-yl)-methyl)bicyclo[1.1.1]pentan-1-yl)methanone]",4860 nM
4,"(5-(3,5-difluorophenyl)-4,5-dihydro-1H-pyrazol-1-yl)(3-((6-methoxy-1H-benzo[d]-imidazol-1-yl)methyl)-bicyclo[1.1.1]pentan-1-yl)-methanone and (5-(3,5-difluorophenyl)-4,5-dihydro-1H-pyrazol-1-yl)(3-((5-methoxy-1H-benzo[d]-imidazol-1-yl)methyl)-bicyclo[1.1.1]pentan-1-yl)-methanone [Example 187]",447 nM
5,"N#Cc1ccc2cnn(CC34CC(C(=O)N5N=CCC5c5cc(F)cc(F)c5)(C3)C4)c2c1 (stereo not shown) [Example 66, 1-((3-(5-(3,5-difluorophenyl)-4,5-dihydro-1H-pyrazole-1-carbonyl)bicyclo[1.1.1]-pentan-1-yl)methyl)-1H-indazole-6-carbonitrile]",16 nM
6,"N#Cc1cnn(CC23CC(C(=O)N4CC(F)CC4c4cccc(F)c4)(C2)C3)c1 (stereo not shown) [Example 33, 1-((3-(4-Fluoro-2-(3-fluorophenyl)pyrrolidine-1-carbonyl)-bicyclo[1.1.1]pentan-1-yl)methyl)-1H-pyrazole-4-carbonitrile]",466 nM
7,"N#Cc1cnc(OCC23CC(C(=O)N4CC(F)CC4c4cccc(F)c4)(C2)C3)nc1 (stereo not shown) [Example 100, 2-((3-(4-fluoro-2-(3-fluorophenyl)pyrrolidine-1-carbonyl)bicyclo[1.1.1]-pentan-1-yl)methoxy)-pyrimidine-5-carbonitrile]",284 nM
8,"N#Cc1ccn(CC23CC(C(=O)N4CC(F)CC4c4cccc(F)c4)(C2)C3)c(=O)c1 (stereo not shown) [Example 36, 1-((3-(4-Fluoro-2-(3-fluorophenyl)pyrrolidine-1-carbonyl)bicyclo[1.1.1]pentan-1-yl)methyl)-2-oxo-1,2-dihydropyridine-4-carbonitrile]",19300 nM
9,"CCOC12CC(C(=O)N3N=CCC3c3ccccc3)(C1)C2 (stereo not shown) [Example 46, (3-Ethoxybicyclo[1.1.1]pentan-1-yl)(5-phenyl-4,5-dihydro-1H-pyrazol-1-yl)methanone]",157 nM
10,"Cc1cccc(C2CCCN2C(=O)C23CC(C2)C3)c1 (stereo not shown) [Example 113, bicyclo[1.1.1]pentan-1-yl(2-(m-tolyl)pyrrolidin-1-yl)methanone]",4230 nM
11,"(5-(3,5-difluorophenyl)-4,5-dihydro-1H-pyrazol-1-yl)(3-((3-methyl-1H-pyrazol-1-yl)methyl)bicyclo[1.1.1]-pentan-1-yl)methanone and (5-(3,5-difluorophenyl)-4,5-dihydro-1H-pyrazol-1-yl)(3-((5-methyl-1H-pyrazol-1-yl)methyl)bicyclo[1.1.1]-pentan-1-yl)methanone [Example 190]",30 nM
12,"O=C(N1CCC(Oc2ccccc2)C1)C12CC(F)(C1)C2 (stereo not shown) [Example 114, (3-fluorobicyclo[1.1.1]-pentan-1-yl)(3-phenoxypyrrolidin-1-yl)methanone]",> 16700 nM and 8900 nM
13,"CP(C)(=O)c1cc(OCC23CC(C(=O)N4N=CCC4c4cc(F)cc(F)c4)(C2)C3)ncn1 (stereo not shown) [Example 17, (5-(3,5-Difluorophenyl)-4,5-dihydro-1H-pyrazol-1-yl)(3-(((6-(dimethylphosphoryl)pyrimidin-4-yl)oxy)methyl)bicyclo[1.1.1]pentan-1-yl)methanone]",570 nM
14,"O=C(N1CC(F)CC1c1cccc(F)c1)C12CC(COc3cccc4nncn34)(C1)C2 (stereo not shown) [Example 103, (3-(([1,2,4]triazolo[4,3-a]-pyridin-5-yloxy)methyl)-bicyclo[1.1.1]pentan-1-yl)(4-fluoro-2-(3-fluorophenyl)-pyrrolidin-1-yl)methanone]",2660 nM
15,"O=C(N1N=CCC1c1ccccc1)C12CC(C1)C2 (stereo not shown) [Example 44, Bicyclo[1.1.1]pentan-1-yl(5-phenyl-4,5-dihydro-1H-pyrazol-1-yl)methanone]",38 nM
16,"O=C(N1N=CCC1c1cc(F)cc(F)c1)C12CC(Cn3nc4ccccc4n3)(C1)C2 (stereo not shown) [Example 86, (3-((2H-benzo[d][1,2,3]-triazol-2-yl)methyl)bicyclo-[1.1.1]pentan-1-yl)(5-(3,5-difluorophenyl)-4,5-dihydro-1H-pyrazol-1-yl)methanone]",19 nM
17,"C[C@H](NC(=O)C12CC(COc3cc(C#N)ncn3)(C1)C2)c1cc(F)cc(F)c1 [Example 102, (S)-3-(((6-cyanopyrimidin-4-yl)oxy)methyl)-N-(1-(3,5-difluorophenyl)ethyl)-bicyclo[1.1.1]pentane-1-carboxamide]",2000 nM
18,"NC(=O)c1ccnc(OCC23CC(C(=O)N4CC(F)CC4c4cccc(F)c4)(C2)C3)n1 (stereo not shown) [Example 95, 2-((3-(4-fluoro-2-(3-fluoro-phenyl)pyrrolidine-1-carbonyl)bicyclo[1.1.1]-pentan-1-yl)methoxy)-pyrimidine-4-carboxamide]",151 nM
19,"CS(=O)(=O)C1CN(CC23CC(C(=O)N4N=CCC4c4cc(F)cc(F)c4)(C2)C3)C1 (stereo not shown) [Example 80, (5-(3,5-difluorophenyl)-4,5-dihydro-1H-pyrazol-1-yl)(3-((3-(methylsulfonyl)azetidin-1-yl)methyl)bicyclo[1.1.1]-pentan-1-yl)methanone]",24700 nM

# — patent US20250214942A1, “INHIBITORS OF RECEPTOR INTERACTING PROTEIN KINASE I FOR THE TREATMENT OF DISEASE” (Board of Regents, The University of Texas System, priority 2019, published 2025)
